This note sets out measurements from patent US9902701B2, “Pyridazones and triazinones for treatment and prophylaxis of hepatitis B virus infection” (priority 2014, dated 2018).

The assay relates to HBsAg. In words: HBsAg assay: chemiluminescence immunoassay (CLIA) of secreted HBsAg in supernatant of HepG2.2.15 cells. The format is cell-based, HBV. The note with it: Hepatitis B virus. The protocol:
HepG2.2.15 cells (Acs et al. Proc Natl Acad Sci USA, 84, (1987), 4641-4), a constitutively HBV-expressing cell line were cultured in DMEM+Glutamax-I medium (Invitrogen, Carlsbad, Calif., USA), supplemented with 10% fetal bovine serum (Invitrogen) and G418 (Invitrogen) at a final concentration of 200 mg/L and maintained in 5% CO2 at 37° C.
HepG2.2.15 cells were seeded in duplicate into white, 96-well plates at 1.5×10^4 cells/well. The cells were treated with a three-fold serial dilution series of the compounds in DMSO. The final DMSO concentration in all wells was 1% and DMSO was used as no drug control.
The HBsAg chemiluminescence immunoassay (CLIA) kit (Autobio Diagnostics Co., Zhengzhou, China, Catalog number: CL0310-2) was used to measure the levels of secreted HBV antigens semi-quantitatively. For the detection 50 μL/well culture supernatant was used and HBsAg was quantified using HBsAg chemiluminescence immunoassay (CLIA) kit (Autobio Diagnostics Co., Zhengzhou, China, Catalog number: CL0310-2), 50 μL of the supernatant was transferred to the CLIA assay plate and 50 μL of enzyme conjugate reagent was added into each well. The plates were sealed and gently agitated for 1 hour at room temperature. The supernatant-enzyme-mixture was discarded and wells were washed 6 times with 300 μL of PBS. The residual liquid was removed by plating the CLIA plate […] on absorbent tissue paper. 25 μL of substrates A and B were added to each well. Luminance was measured using a luminometer (Mithras LB 940 Multimode Microplate Reader) after 10 minutes incubation. Dose-response curves were generated and the IC50 value was extrapolated by using the E-WorkBook Suite (ID Business Solutions Ltd., Guildford, UK). The IC50 was defined as the compound concentration (or conditioned media log dilution) at which HBsAg secretion was reduced by 50% compared to the no drug control.
Usually IC50 stands for the concentration that gives 50% inhibition. Read a high IC50 as weaker potency. On to `CN(C(=O)CN1N=C(c2ccc(Cl)cc2)CCC1=O)c1ccc(Cl)c(Cl)c1` [Example 1-8, 2-[3-(4-Chlorophenyl)-6-oxo-4,5-dihydropyridazin-1-yl]-N-(3,4-dichlorophenyl)-N-methyl-acetamide], for which the IC50 turned out to be 246 nM.

On to `CC(C)N(C(=O)c1ccc(N(C)C(=O)CN2N=C(c3ccc(Cl)cc3)CCC2=O)cc1)C(C)C` [Example 1-12, 4-[[2-[3-(4-Chlorophenyl)-6-oxo-4,5-dihydropyridazin-1-yl]acetyl]-methyl-amino]-N,N-diisopropyl-benzamide], for which the IC50 worked out at 885 nM. With `Cc1cc(C2=NN(CC(=O)N(C)c3cccc(C(F)(F)F)c3)C(=O)CC2)ccc1F` [Example 1-35, 2-[3-(4-Fluoro-3-methyl-phenyl)-6-oxo-4,5-dihydropyridazin-1-yl]-N-methyl-N-[3-(trifluoromethyl)phenyl]acetamide] the figure was 4660 nM; with `CN(C(=O)CN1N=C(c2ccc(Cl)cc2)CCC1=O)c1ccc(OC(F)(F)F)cc1` [Example 1-16, 2-[3-(4-Chlorophenyl)-6-oxo-4,5-dihydropyridazin-1-yl]-N-methyl-N-[4-(trifluoromethoxy)phenyl]acetamide], 3860 nM. `CN(C(=O)CN1N=C(c2ccc(F)c(F)c2)CCC1=O)c1cccc(C(F)(F)F)c1` [Example 1-52, 2-[3-(3,4-Difluorophenyl)-6-oxo-4,5-dihydropyridazin-1-yl]-N-methyl-N-[3-(trifluoromethyl)phenyl]acetamide] yielded an IC50 of 470 nM.

On to `CN(C(=O)CN1N=C(c2ccc(Cl)cc2)CCC1=O)c1ccc(C(F)(F)F)cc1` [Example 1-9, 2-[3-(4-Chlorophenyl)-6-oxo-4,5-dihydropyridazin-1-yl]-N-methyl-N-[4-(trifluoromethyl)phenyl]acetamide], for which the IC50 was 389 nM. With `CN(C(=O)CN1N=C(c2ccc(C(F)(F)F)cc2)CCC1=O)c1ccc(C(F)(F)F)cc1` [Example 1-40, N-Methyl-2-[6-oxo-3-[4-(trifluoromethyl)phenyl]-4,5-dihydropyridazin-1-yl]-N-[4-(trifluoromethyl)phenyl]acetamide], the IC50 came out at 380 nM.

In the case of `CN(C(=O)CN1N=C(c2ccc(Cl)cc2)CCC1=O)c1ccc(F)c(C(F)(F)F)c1` [Example 1-2, 2-[3-(4-Chlorophenyl)-6-oxo-4,5-dihydropyridazin-1-yl]-N-[4-fluoro-3-(trifluoromethyl)phenyl]-N-methyl-acetamide], the IC50 was 740 nM. In turn, `COc1cccc(N(C)C(=O)CN2N=C(c3ccc(Cl)cc3)CCC2=O)c1` [Example 1-5, 2-[3-(4-Chlorophenyl)-6-oxo-4,5-dihydropyridazin-1-yl]-N-(3-methoxyphenyl)-N-methyl-acetamide] gave an IC50 of 9630 nM. With `CN(C(=O)CN1N=C(c2ccc(Br)cc2)CCC1=O)c1ccc(Cl)cc1` [Example 1-50, 2-[3-(4-Bromophenyl)-6-oxo-4,5-dihydropyridazin-1-yl]-N-(4-chlorophenyl)-N-methyl-acetamide] the figure was 1230 nM. With `CN(C(=O)CN1N=C(c2ccc(F)cc2F)CCC1=O)c1ccc(F)c(C(F)(F)F)c1` [Example 1-32, 2-[3-(2,4-Difluorophenyl)-6-oxo-4,5-dihydropyridazin-1-yl]-N-[4-fluoro-3-(trifluoromethyl)phenyl]-N-methyl-acetamide] the figure was 513 nM; with `CN(C(=O)CN1N=C(c2ccc(Cl)cc2)CCC1=O)c1ccc(F)cc1F` [Example 1-13, 2-[3-(4-Chlorophenyl)-6-oxo-4,5-dihydropyridazin-1-yl]-N-(2,4-difluorophenyl)-N-methyl-acetamide], 6610 nM; with `Cc1cc(Cl)ccc1C1=NN(CC(=O)N(C)c2cccc(C(F)(F)F)c2)C(=O)CC1` [Example 1-29, 2-[3-(4-Chloro-2-methylphenyl)-6-oxo-4,5-dihydropyridazin-1-yl]-N-methyl-N-[3-(trifluoromethyl)phenyl]acetamide], 483 nM. Compound `Cc1cc(Cl)ccc1C1=NN(CC(=O)N(C)c2cccc(Cl)c2)C(=O)CC1` [Example 1-27, 2-[3-(4-Chloro-2-methyl-phenyl)-6-oxo-4,5-dihydropyridazin-1-yl]-N-(3-chlorophenyl)-N-methyl-acetamide] registered an IC50 of 814 nM. With `Cc1cc(C2=NN(CC(=O)N(C)c3ccc(C(F)(F)F)c(F)c3)C(=O)CC2)ccc1F` [Example 1-38, 2-[3-(4-Fluoro-3-methyl-phenyl)-6-oxo-4,5-dihydropyridazin-1-yl]-N-[3-fluoro-4-(trifluoromethyl)phenyl]-N-methyl-acetamide] the figure was 2350 nM; with `CN(C(=O)CN1N=C(c2cccc(Cl)c2)CCC1=O)c1ccc(Cl)cc1` [Example 1-57, N-(4-Chlorophenyl)-2-[3-(3-chlorophenyl)-6-oxo-4,5-dihydropyridazin-1-yl]-N-methyl-acetamide], 3020 nM; with `CN(C(=O)CN1N=C(c2ccc(F)cc2F)CCC1=O)c1cccc(F)c1` [Example 1-34, 2-[3-(2,4-Difluorophenyl)-6-oxo-4,5-dihydropyridazin-1-yl]-N-(3-fluorophenyl)-N-methyl-acetamide], 1250 nM. The compound `CN(C(=O)Cn1nc(-c2ccc(Cl)cc2)ccc1=O)c1ccc(C(F)(F)F)cc1` [Example 2-1, 2-[3-(4-Chlorophenyl)-6-oxo-pyridazin-1-yl]-N-methyl-N-[4-(trifluoromethyl)phenyl]acetamide] had a 50% inhibitory concentration (IC50) of 900 nM. `CN(C(=O)CN1N=C(c2ccc(Cl)c(F)c2)CCC1=O)c1cccc(F)c1` [Example 1-23, 2-[3-(4-Chloro-3-fluoro-phenyl)-6-oxo-4,5-dihydropyridazin-1-yl]-N-(3-fluorophenyl)-N-methyl-acetamide] came in with an IC50 of 460 nM. With `Cc1cccc(N(C)C(=O)CN2N=C(c3ccc(Cl)cc3)CCC2=O)c1` [Example 1-21, 2-[3-(4-Chlorophenyl)-6-oxo-4,5-dihydropyridazin-1-yl]-N-methyl-N-(m-tolyl)acetamide] the figure was 2080 nM. As to `CN(C(=O)CN1N=C(c2ccc(Cl)cc2Cl)CCC1=O)c1ccc(Cl)cc1` [Example 1-54, N-(4-Chlorophenyl)-2-[3-(2,4-dichlorophenyl)-6-oxo-4,5-dihydropyridazin-1-yl]-N-methyl-acetamide], inhibition was half-maximal at 1930 nM (IC50). With `COc1ccc(N(C)C(=O)CN2N=C(c3ccc(Cl)cc3)CCC2=O)cc1` [Example 1-20, 2-[3-(4-Chlorophenyl)-6-oxo-4,5-dihydropyridazin-1-yl]-N-(4-methoxyphenyl)-N-methyl-acetamide] the figure was 5690 nM; with `CN(C(=O)CN1N=C(c2ccc(Cl)cc2)CCC1=O)c1cccc(Cl)c1` [Example 1-18, N-(3-Chlorophenyl)-2-[3-(4-chlorophenyl)-6-oxo-4,5-dihydropyridazin-1-yl]-N-methyl-acetamide], 900 nM. Compound `Cc1cc(C2=NN(CC(=O)N(C)c3ccc(F)c(C(F)(F)F)c3)C(=O)CC2)ccc1F` [Example 1-37, 2-[3-(4-Fluoro-3-methyl-phenyl)-6-oxo-4,5-dihydropyridazin-1-yl]-N-[4-fluoro-3-(trifluoromethyl)phenyl]-N-methyl-acetamide] returned an IC50 of 3140 nM. `CN(C(=O)CN1N=C(c2ccc(Cl)c(F)c2)CCC1=O)c1ccc(C(F)(F)F)cc1` [Example 1-25, 2-[3-(4-Chloro-3-fluoro-phenyl)-6-oxo-4,5-dihydropyridazin-1-yl]-N-methyl-N-[4-(trifluoromethyl)phenyl]acetamide] had an IC50 of 240 nM. With `CCCCCN(C)C(=O)c1ccc(N(C)C(=O)CN2N=C(c3ccc(Cl)cc3)CCC2=O)cc1` [Example 1-14, 4-[[2-[3-(4-Chlorophenyl)-6-oxo-4,5-dihydropyridazin-1-yl]acetyl]-methyl-amino]-N-methyl-N-pentyl-benzamide] the figure was 3020 nM; with `CN(C(=O)CN1N=C(c2ccc(C(F)(F)F)cc2)CCC1=O)c1ccc(F)cc1` [Example 1-43, N-(4-Fluorophenyl)-N-methyl-2-[6-oxo-3-[4-(trifluoromethyl)phenyl]-4,5-dihydropyridazin-1-yl]acetamide], 2470 nM.

Consider `CN(C(=O)CN1N=C(c2ccc(F)cc2F)CCC1=O)c1cccc(C(F)(F)F)c1` [Example 1-31, 2-[3-(2,4-Difluorophenyl)-6-oxo-4,5-dihydropyridazin-1-yl]-N-methyl-N-[3-(trifluoromethyl)phenyl]acetamide], for which inhibition was half-maximal at 830 nM (IC50). With `CN(C(=O)Cn1nc(-c2ccc(Cl)cc2F)ccc1=O)c1ccc(C(F)(F)F)cc1` [Example 2-3, 2-[3-(4-Chloro-2-fluoro-phenyl)-6-oxo-pyridazin-1-yl]-N-methyl-N-[4-(trifluoromethyl)phenyl]acetamide] the figure was 1500 nM. Turning to `CN(C(=O)CN1N=C(c2ccc(Cl)cc2)CCC1=O)c1ccc(Cl)cc1` [Example 1-1, N-(4-Chlorophenyl)-2-[3-(4-chlorophenyl)-6-oxo-4,5-dihydropyridazin-1-yl]-N-methyl-acetamide], it took 1580 nM to reach half-maximal inhibition (IC50).
